# Patent US12263155B2, “Combinations of monoamine oxidase inhibitors and serotonin receptor agonists and their therapeutic use” (Remedi, Inc., priority 2022, dated 2025)
# “And” between values parts separate entries of the source, which are not always exact repeats. Identical values can stand only once. “Also recorded” adds a separate entry of the source.
# Target: T1, brain MAO-A (Rattus norvegicus, UniProt P21396)
# T1 construct: prepared from brain homogenates of male Sprague-Dawley rats, served as the source of MAO-A enzymatic activity; from tissue
# T1 sequence (P21396 1-526): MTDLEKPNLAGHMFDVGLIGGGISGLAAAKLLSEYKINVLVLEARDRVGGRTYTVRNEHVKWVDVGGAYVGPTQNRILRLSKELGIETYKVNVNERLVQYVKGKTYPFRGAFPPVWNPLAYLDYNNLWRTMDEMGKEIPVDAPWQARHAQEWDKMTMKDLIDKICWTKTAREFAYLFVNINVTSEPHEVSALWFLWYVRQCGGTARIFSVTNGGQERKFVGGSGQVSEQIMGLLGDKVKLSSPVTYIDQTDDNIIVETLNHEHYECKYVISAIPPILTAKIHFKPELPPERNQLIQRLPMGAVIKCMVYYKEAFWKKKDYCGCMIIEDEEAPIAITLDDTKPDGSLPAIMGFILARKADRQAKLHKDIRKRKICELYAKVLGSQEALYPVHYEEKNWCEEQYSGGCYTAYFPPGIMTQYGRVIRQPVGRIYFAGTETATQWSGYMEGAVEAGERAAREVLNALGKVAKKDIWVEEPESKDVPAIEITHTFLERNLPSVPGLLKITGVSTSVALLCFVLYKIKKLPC
# Test: Ex vivo brain MAO-A activity after oral CX157 in rats
# Set-up: mean brain MAO-A activity (Avg.) / brain MAO-A activity, single experimental day: unit not given here
# Settings: for mean brain MAO-A activity (Avg.): average of 4 days
# Method: Methods: Sprague-Dawley male rats (average weight of 190 g) were segregated into three groups for testing of the effects of CX157 on brain MAO-A enzyme activity. The three groups consisted of animals who received either 1, 5, and 10 mg/kg of CX157. Each group consisted of twenty-four subjects. Test animals were administered the doses of CX157 orally, by the gavage method in accordance with White & Scates, Drug Dev Res. 1992; 25:191-199.
# In each drug group, four animals were sacrificed at each time period (0, 2, 4, 8, 18 and 24 hours) on four different days following drug administration. Brains were removed from the animal, bisected, frozen immediately on dry ice and placed in a −80° C. freezer. Trunk blood was collected in tubes containing sodium heparin and centrifuged at 5000 rpm for 10 minutes at 4° C. to extract the plasma. The frozen brain samples were thawed, weighed, and homogenized (3:1 tissue weight/buffer volume) in 0.25 M sucrose, containing 50 mM KHPO4(pH 7.4), with a Teflon glass homogenizer. Deprenyl HCl (at a final concentration of 100 nM) was added to each sample of homogenate to block MAO-B enzyme activity. A volume of 400 μl of homogenate was pipetted into each assay tube. A 50 μl volume of 500 μM [^14C]-5HT (specific activity of 1.6 Curies/mmol) was added to each assay tube to give a final concentration of […]. Blank assay tubes (included to correct for nonspecific deamination of [^14C]-5HT) also contained 50 μl of RO-41-1049, while total activity assay tubes (specific and nonspecific deaminating activity) contained 50 μl of buffer. The final concentration of RO-41-1049 in the blank activity tubes was 100 μM. This yielded a total assay volume of 500 μl. All assays were incubated for 7.5 minutes at 37° C. The reaction was terminated by the addition of 500 μl of 2 M citric acid. The deaminated [^14C]-5HT metabolite was extracted into a liquid scintillation fluor mixture of xylene/ethyl acetate and 0.4% PPO and quantified using a liquid scintillation spectrometer.
# The specific activity of MAO-A in each of the samples was determined by subtraction of the values obtained in the nonspecific tubes from those in the total activity tubes. Methylcellulose was prepared by weighing 17.5 grams in a weigh boat on a Mettler balance and poured into a 4 liter flask. Two liters of distilled water was added to the 4 liter flask. The mixture was placed on a stir plate/hot plate and stirred overnight (for 24 hours) until completely dissolved. After the methylcellulose dissolved, distilled water was added until the volume in the flask reached 3.5 liters. The CX157 was prepared in a 0.5% methylcellulose/Tween 80 mixture to obtain the following dosages 1, 5, and 10 mg/kg. Initially, 52 mg of CX157 was placed in a 7 ml amber vial. A volume of 52 μl of Tween 80 was added to the amber vial containing CX157. A volume of 5.2 ml of methylcellulose was added to this vial to yield a solution of 10 mg/ml; this solution was used to deliver the 10 mg/kg dose. For the 5 mg/kg dose, a 5 mg/ml solution was prepared as follows; a volume of 1 ml of 10 mg/ml stock was mixed with 1 ml of methylcellulose and sonicated until mixed thoroughly. For the 1 mg/kg dose, a 1:10 dilution of the stock dose of 10 mg/ml was performed by pipetting 0.5 ml of 10 mg/ml stock into an amber vial with an addition of 4.5 ml of methylcellulose followed by sonication to disperse the drug into solution. All drugs were then administered on a 1 ml/kg basis with an average volume of 200 μl.
structure (smiles),measurement,setting,value
"O=S1(=O)c2ccc(F)cc2Oc2cc(OCC(F)(F)F)ccc21 [CX157, 3-fluoro-7(2,2,2-trifluorethoxy)phenoxathiine-10,10-dioxide]","brain MAO-A activity, % Baseline","1 mg/kg oral table, 0 h (baseline)",100%
same,Mean brain MAO-A activity,"1 mg/kg oral table, 0 h (pooled baseline, N=12)",4002.0 DPM
same,mean brain MAO-A activity (Avg.),"1 mg/kg oral, 0 h",3636
same,Mean brain MAO-A activity,"1 mg/kg oral, 2 h",2777.5 DPM
same,"brain MAO-A activity, % Baseline","1 mg/kg oral, 2 h",69%
same,mean brain MAO-A activity (Avg.),"1 mg/kg oral, 2 h",2778
same,Mean brain MAO-A activity,"1 mg/kg oral, 4 h",3023.3 DPM
same,"brain MAO-A activity, % Baseline","1 mg/kg oral, 4 h",76%
same,mean brain MAO-A activity (Avg.),"1 mg/kg oral, 4 h",3023
same,Mean brain MAO-A activity,"1 mg/kg oral, 8 h",5120.8 DPM
same,"brain MAO-A activity, % Baseline","1 mg/kg oral, 8 h",128%
same,mean brain MAO-A activity (Avg.),"1 mg/kg oral, 8 h",5121
same,Mean brain MAO-A activity,"1 mg/kg oral, 18 h",3993.0 DPM
same,"brain MAO-A activity, % Baseline","1 mg/kg oral, 18 h",100%
same,"brain MAO-A activity, single experimental day","1 mg/kg oral, 18 h, Day #1-#4, 1 mg/kg",5071 and 5019 and 3071 and 2811
same,mean brain MAO-A activity (Avg.),"1 mg/kg oral, 18 h",3993
same,Mean brain MAO-A activity,"1 mg/kg oral, 24 h",4883.0 DPM
same,"brain MAO-A activity, % Baseline","1 mg/kg oral, 24 h",122%
same,mean brain MAO-A activity (Avg.),"1 mg/kg oral, 24 h",4883
same,"brain MAO-A activity, % Baseline","5 mg/kg oral table, 0 h (baseline)",100%
same,Mean brain MAO-A activity,"5 mg/kg oral table, 0 h (pooled baseline, N=12)",4002.0 DPM
same,"brain MAO-A activity, single experimental day","5 mg/kg oral, 0 h, Day #1-#4, 5 mg/kg",5661 and 5499 and 3070 and 3687
same,mean brain MAO-A activity (Avg.),"5 mg/kg oral, 0 h",4479
same,Mean brain MAO-A activity,"5 mg/kg oral, 2 h",1495.5 DPM
same,"brain MAO-A activity, % Baseline","5 mg/kg oral, 2 h",37%
same,mean brain MAO-A activity (Avg.),"5 mg/kg oral, 2 h",1496
same,Mean brain MAO-A activity,"5 mg/kg oral, 4 h",2298.0 DPM
same,"brain MAO-A activity, % Baseline","5 mg/kg oral, 4 h",57%
same,mean brain MAO-A activity (Avg.),"5 mg/kg oral, 4 h",2298
same,Mean brain MAO-A activity,"5 mg/kg oral, 8 h",1365.5 DPM
same,"brain MAO-A activity, % Baseline","5 mg/kg oral, 8 h",34%
same,mean brain MAO-A activity (Avg.),"5 mg/kg oral, 8 h",1366
same,Mean brain MAO-A activity,"5 mg/kg oral, 18 h",2818.5 DPM
same,"brain MAO-A activity, % Baseline","5 mg/kg oral, 18 h",70%
same,mean brain MAO-A activity (Avg.),"5 mg/kg oral, 18 h",2818
same,Mean brain MAO-A activity,"5 mg/kg oral, 24 h",3442.5 DPM
same,"brain MAO-A activity, % Baseline","5 mg/kg oral, 24 h",86%
same,mean brain MAO-A activity (Avg.),"5 mg/kg oral, 24 h",3443
same,"brain MAO-A activity, % Baseline","10 mg/kg oral table, 0 h (baseline)",100%
same,Mean brain MAO-A activity,"10 mg/kg oral table, 0 h (pooled baseline, N=12)",4002.0 DPM
same,mean brain MAO-A activity (Avg.),"10 mg/kg oral, 0 h",3889
same,Mean brain MAO-A activity,"10 mg/kg oral, 2 h",3805.8 DPM
same,"brain MAO-A activity, % Baseline","10 mg/kg oral, 2 h",95%
same,mean brain MAO-A activity (Avg.),"10 mg/kg oral, 2 h",3806
same,Mean brain MAO-A activity,"10 mg/kg oral, 4 h",1893.5 DPM
same,"brain MAO-A activity, % Baseline","10 mg/kg oral, 4 h",47%
same,mean brain MAO-A activity (Avg.),"10 mg/kg oral, 4 h",1894
same,Mean brain MAO-A activity,"10 mg/kg oral, 8 h",1034.5 DPM
same,"brain MAO-A activity, % Baseline","10 mg/kg oral, 8 h",26%
same,mean brain MAO-A activity (Avg.),"10 mg/kg oral, 8 h",1035
same,Mean brain MAO-A activity,"10 mg/kg oral, 18 h",2149.8 DPM
same,"brain MAO-A activity, % Baseline","10 mg/kg oral, 18 h",54%
same,mean brain MAO-A activity (Avg.),"10 mg/kg oral, 18 h",2150
same,Mean brain MAO-A activity,"10 mg/kg oral, 24 h",1711.8 DPM
same,"brain MAO-A activity, % Baseline","10 mg/kg oral, 24 h",43%
same,mean brain MAO-A activity (Avg.),"10 mg/kg oral, 24 h",1712
same,inhibition of brain MAO-A enzyme activity after oral administration,"oral 1, 5, 10 mg/kg",dose and time dependent manner; also recorded: dose-dependent and reversible fashion
